Laboratory results published in patent publication US20070128217A1 (priority 2003, published 2007).

How the values were obtained:
[1] = test system: rabbit serum obtained by immunizing a rabbit with the SARS-CoV strain Frankfurt 1; format: binding; set-up: Binding of a rabbit serum to linear peptides / Binding of a rabbit serum to looped peptides / Rabbit serum linear peptides / Rabbit serum looped peptides / Binding of a rabbit serum to linear peptides of protein N of SARS-CoV Urbani (Rabbit serum linear peptides) / Binding of a rabbit serum to looped/cyclic peptides of protein N of SARS-CoV Urbani (Rabbit serum looped peptides): unit not given here
[2] = test system: antibodies in sera from SARS patients (sera 1a, 1b, 2, 6, 37, 62, London, SARS-yellow, SARS-green); format: binding, human; set-up: Binding of serum 6 to linear peptides of protein X1 of SARS-CoV Urbani / Binding of serum 37 to linear peptides of protein X1 of SARS-CoV Urbani / Binding of serum 6 to looped/cyclic peptide (PEPSCAN-ELISA) / Binding of serum 37 to looped/cyclic peptide (PEPSCAN-ELISA) / Binding of serum 37 to looped/cyclic peptides of protein X1 of SARS-CoV Urbani / Binding of serum 6 to linear peptides of protein X2 / Binding of serum 37 to linear peptides of protein X2 / Binding of serum 37 to looped/cyclic peptides of protein X2 of SARS-CoV Urbani / Binding of serum 6 to linear peptides of protein M of SARS-CoV Urbani / Binding of serum 37 to linear peptides of protein M of SARS-CoV Urbani / Binding of serum 6 to looped/cyclic peptides of protein M of SARS-CoV Urbani / Binding of serum 37 to looped/cyclic peptides of protein M of SARS-CoV Urbani / Binding of serum 6 to linear peptides of protein X3 of SARS-CoV Urbani / Binding of serum 37 to linear peptides of protein X3 of SARS-CoV Urbani / Binding of serum 37 to looped/cyclic peptides of protein X3 of SARS-CoV Urbani / Binding of serum 6 to linear peptides of protein X4 of SARS-CoV Urbani / Binding of serum 37 to linear peptides of protein X4 of SARS-CoV Urbani / Binding of serum 37 to looped/cyclic peptides of protein X4 of SARS-CoV Urbani / Binding of serum 6 to linear peptides of protein X5 of SARS-CoV Urbani / Binding of serum 37 to linear peptides of protein X5 of SARS-CoV Urbani / Binding of serum 37 to looped/cyclic peptides of protein X5 of SARS-CoV Urbani / Binding of serum 6 to linear peptides of protein N of SARS-CoV Urbani / Binding of serum 37 to linear peptides of protein N of SARS-CoV Urbani / Binding of serum 6 to linear peptide (PEPSCAN-ELISA) / Binding of serum 1a to looped/cyclic peptides of protein N of SARS-CoV Urbani / Binding of serum 1b to looped/cyclic peptides of protein N of SARS-CoV Urbani / Binding of serum 2 to looped/cyclic peptides of protein N of SARS-CoV Urbani / Binding of serum 6 to looped/cyclic peptides of protein N of SARS-CoV Urbani / Binding of serum 37 to looped/cyclic peptides of protein N of SARS-CoV Urbani / Binding of serum 62 to looped/cyclic peptides of protein N of SARS-CoV Urbani / Binding of serum London to looped/cyclic peptides of protein N of SARS-CoV Urbani / Binding of serum SARS-green to looped/cyclic peptides of protein N of SARS-CoV Urbani: unit not given here
[3] = test system: control sera (pooled serum of ten healthy LUMC hospital workers; commercial negative donor pooled serum from the Dutch bloodbank); format: binding, human; set-up: Binding of Control serum LUMC to linear peptides / Binding of Control serum Blood-bank to linear peptides / Binding of Control serum LUMC to looped peptides / Binding of Control Serum Blood-Bank to Looped peptides / Binding of Control serum LUMC to linear peptides of the protein M of SARS-CoV Urbani / Binding of Control serum Blood-bank to linear peptides of the protein M of SARS-CoV Urbani / Binding of Control serum LUMC to looped peptides of the protein M of SARS-CoV Urbani / Binding of Control Serum Blood-Bank to Looped peptides of the protein M of SARS-CoV Urbani: unit not given here

FHRWHTMVQTCTPNV was tested, and the “Rabbit serum linear peptides” value [1] was 0.8, the “Rabbit serum looped peptides” value [1] was 0.4 and the “Binding of serum 1a to linear peptides of protein X5 of SARS-CoV Urbani” value [2] was 0.8. The “Binding of serum 1a to looped/cyclic peptides of protein X5 of SARS-CoV Urbani” value [2] was 0.7, the “Binding of serum 1b to linear peptides of protein X5 of SARS-CoV Urbani” value [2] was 0.7 and the “Binding of serum 1b to looped/cyclic peptides of protein X5 of SARS-CoV Urbani” value [2] was 0.6. The “Binding of serum 2 to linear peptides of protein X5 of SARS-CoV Urbani” value [2] was 0.9, the “Binding of serum 2 to looped/cyclic peptides of protein X5 of SARS-CoV Urbani” value [2] was 0.6 and the “Binding of serum 6 to linear peptides of protein X5 of SARS-CoV Urbani” value [2] was 0.5. The “Binding of serum 6 to looped/cyclic peptides of protein X5 of SARS-CoV Urbani” value [2] was 0.3, the “Binding of serum 37 to linear peptides of protein X5 of SARS-CoV Urbani” value [2] was 0.7 and the “Binding of serum 37 to looped/cyclic peptides of protein X5 of SARS-CoV Urbani” value [2] was 0.5. The “Binding of serum 62 to linear peptides of protein X5 of SARS-CoV Urbani” value [2] was 0.7, the “Binding of serum 62 to looped/cyclic peptides of protein X5 of SARS-CoV Urbani” value [2] was 0.4 and the “Binding of serum London to linear peptides of protein X5 of SARS-CoV Urbani” value [2] was 0.7. The “Binding of serum London to looped/cyclic peptides of protein X5 of SARS-CoV Urbani” value [2] was 0.2, the “Binding of serum SARS-green to linear peptides of protein X5 of SARS-CoV Urbani” value [2] was 0.5 and the “Binding of serum SARS-green to looped/cyclic peptides of protein X5 of SARS-CoV Urbani” value [2] was 0.5. For the same sequence, the “Binding of serum SARS-yellow to linear peptides of protein X5 of SARS-CoV Urbani” value [2] was 0.4, the “Binding of serum SARS-yellow to looped/cyclic peptides of protein X5 of SARS-CoV Urbani” value [2] was 0.4 and the “Binding of Control Serum Blood-Bank to Looped peptides” value [3] was 0.4. For the same sequence, the “Binding of Control serum Blood-bank to linear peptides” value [3] was 0.7, the “Binding of Control serum LUMC to linear peptides” value [3] was 0.5 and the “Binding of Control serum LUMC to looped peptides” value [3] was 0.5.

With EVYYQLESTQITTDT the “Binding of a rabbit serum to linear peptides” value [1] was 0.1, the “Binding of a rabbit serum to looped peptides” value [1] was 0.4 and the “Binding of serum 1a to linear peptides of protein X1 of SARS-CoV Urbani” value [2] was 0.7. The “Binding of serum 1a to looped/cyclic peptides of protein X1 of SARS-CoV Urbani” value [2] was 0.5, the “Binding of serum 1b to linear peptides of protein X1 of SARS-CoV Urbani” value [2] was 0.6 and the “Binding of serum 1b to looped/cyclic peptides of protein X1 of SARS-CoV Urbani” value [2] was 0.4. For the same sequence, the “Binding of serum 2 to linear peptides of protein X1 of SARS-CoV Urbani” value [2] was 0.4, the “Binding of serum 2 to looped/cyclic peptides of protein X1 of SARS-CoV Urbani” value [2] was 0.1 and the “Binding of serum 6 to linear peptides of protein X1 of SARS-CoV Urbani” value [2] was 0.5. The “Binding of serum 6 to looped/cyclic peptides of protein X1 of SARS-CoV Urbani” value [2] was 0.2, the “Binding of serum 37 to linear peptides of protein X1 of SARS-CoV Urbani” value [2] was 0.7 and the “Binding of serum 37 to looped/cyclic peptides of protein X1 of SARS-CoV Urbani” value [2] was 0.5. The “Binding of serum 62 to linear peptides of protein X1 of SARS-CoV Urbani” value [2] was 0.4, the “Binding of serum 62 to looped/cyclic peptides of protein X1 of SARS-CoV Urbani” value [2] was 0.5 and the “Binding of serum London to linear peptides of protein X1 of SARS-CoV Urbani” value [2] was 0.3. For the same sequence, the “Binding of serum London to looped/cyclic peptides of protein X1 of SARS-CoV Urbani” value [2] was 0.2, the “Binding of serum SARS-green to linear peptides of protein X1 of SARS-CoV Urbani” value [2] was 0.2 and the “Binding of serum SARS-green to looped/cyclic peptides of protein X1 of SARS-CoV Urbani” value [2] was 0.3. For the same sequence, the “Binding of serum SARS-yellow to linear peptides of protein X1 of SARS-CoV Urbani” value [2] was 0.3, the “Binding of serum SARS-yellow to looped/cyclic peptides of protein X1 of SARS-CoV Urbani” value [2] was 0.3 and the “Binding of Control Serum Blood-Bank to Looped peptides” value [3] was 0.5. The “Binding of Control serum Blood-bank to linear peptides” value [3] was 0.4, the “Binding of Control serum LUMC to linear peptides” value [3] was 0.4 and the “Binding of Control serum LUMC to looped peptides” value [3] was 0.4.
